Measured values: ChEMBL document CHEMBL4130428, “Recent advances in polysaccharides for osteoarthritis therapy” (2017)

Legend:
[1] = test system: Homo sapiens; assay: Anti-osteoarthritis activity in knee osteoarthritis patient assessed as cartilage volume in medial area dosed orally for 2 consecutive years by MRI method relative to control; type: functional
[2] = test system: Homo sapiens; assay: Anti-osteoarthritis activity in knee osteoarthritis patient assessed as cartilage volume in medial condylar area dosed orally for 2 consecutive years by MRI method relative to control; type: functional

SMILES: Cc1ccc(-c2cc(C(F)(F)F)nn2-c2ccc(S(N)(=O)=O)cc2)cc1 [CELECOXIB]
- inhibition (INH) [1]: 8.1%
- inhibition (INH) [2]: 7.7%
